{
  "source": "paper PMC12072186",
  "about": "“A Novel Small Molecule Enhances Stable Dopamine Delivery to the Brain in Models of Parkinson’s Disease” (International Journal of Molecular Sciences, 2025)",
  "key": {"[1]": {"assay": "Pharmacokinetics after single i.p. injection, serum and brain (UHPLC-MS/MS)", "type": "in vivo, mouse", "conditions": "for Kp: intraperitoneal; for half-life / AUC(0-inf): ip"}, "[2]": {"assay": "In vivo metabolism, metabolite profiling in rat brain and plasma (LC-MS/MS)", "procedure": "In vivo metabolism: We performed a metabolism study (Figure 2) in male Sprague Dawley rats (6–8 weeks old) after a single i.p. injection of 50 mg/kg Pegasus. Plasma and brain samples were serially collected and assessed for the presence of possible phase-I and phase-II metabolites. […] The relative abundance of Pegasus and its metabolites in the brain and plasma was determined at the ionization parameters of the parent.\nMetabolite profiling was performed in rat brain and plasma samples to detect phase-I and phase-II metabolites in male Sprague Dawley rats (6–8 weeks old, n = 6) injected (i.p.) with 50 mg/kg Pegasus. The formulation vehicle of Pegasus was 5% DMSO + 35% polyethylene glycol (PEG) 400 + 60% normal saline, and this formulation was used to measure the plasma and brain concentrations of Pegasus and all other metabolites. All samples obtained after Pegasus dosing in rats by the i.p. route of administration were used for metabolite profiling and compared to normal saline. Blood (n = 16 samples) was collected via retro-orbital plexus puncture 0.25, 1, 4, 6, 8, and 24 h pre-dose, and brain sampling was 1, 4, and 24 h post-dose (n = 6 per group). The brain samples were cleaned and perfused, then washed with PBS. The brains (approximately 1.5 g) were transferred to a 50 mL centrifuge tube and 36 mL of ice-cold PBS was added. The mixture was homogenized for about 1–2 min to obtain a uniform suspension. The precipitate was allowed to settle for 30 min at 4 °C, and 15 mL of the middle layer was collected. The plasma and brain samples were processed by the protein precipitation method. In total, 175 μL of acetonitrile was added to 25 μL of plasma samples. The samples were mixed, followed by centrifugation at 4000 rpm for 20 min. The supernatant from the samples was subjected to LC-MS/MS analysis.\nThe samples were analyzed by liquid chromatography tandem mass spectrometry (HPLC: LC series, Shimadzu, Chiyoda-ku, Tokyo, Japan; mass spectrometer: API4000 Triple Quad mass spectrometer, Applied Biosystems, Carlsbad, CA, USA). The samples (n = 6) were processed using protein precipitation and 1 mM stock solution, prepared in DMSO, spiked into acetonitrile to a final concentration of 4 µM, and processed using liquid chromatography tandem mass spectrometry, employing a linear gradient method using MH+/MH−(Q1) and product ion (MS/MS) scans. The evaluation of the Pegasus metabolites included demethylation, de-hydroxylation, amide cleavage, oxidation, de-hydrogenation, glucuronidation, sulfation, glutathione conjugation, and several other possibilities. The relative abundance of Pegasus and its metabolites in the brain and plasma was determined at the ionization parameters of the parent."}, "TgA53T mice": {"system": "TgA53T mice", "assay": "Elevated plus maze test in TgA53T mice", "type": "in vivo, mouse", "conditions": "50 mg/kg i.p., vs DMSO"}, "[3]": {"system": "MPTP-treated C57BL/6 mice", "assay": "Rotarod test in MPTP-treated mice", "type": "in vivo, mouse", "conditions": "MPTP 25 mg/kg i.p. day 1–5; treatment day 1–13; vs MPTP vehicle control", "description": "MPTP was injected to male C57BL/6 mice for 5 consecutive days (Figure 4A) to destroy DA neurons, and then the mice were treated with Pegasus alone or Pegasus + Benserazide compared to L-dopa alone or L-Dopa + Benserazide.\nFrom day 1 to day 5, MPTP was administered to all the groups except Naive at a dose of 25 mg/kg, i.p., QD. Treatment with Pegasus alone (50 mg/kg, i.p., BID), a combination of Pegasus 50 mg/kg, BID + Benserazide 10 mg/kg, QD, or a combination of L-Dopa 10 mg/kg, QD + Benserazide 10 mg/kg, QD or standalone L-Dopa 10 mg/kg, QD, started on day 1 and continued until day 13. On day 13, after the first dose of Pegasus, 4 animals/time point from each group were sacrificed at 0.5, 1, 3, 6, and 12 h, and the blood and brains were collected.\nThe mice were placed on an accelerating Rotarod (Columbus Instruments, Columbus, OH, USA) equipped with individual timers for each mouse. […] The mice were trained for 3 consecutive days before the final measurement."}, "human alpha-synuclein": {"system": "human alpha-synuclein", "assay": "Western blot of soluble brain extracts for alpha-synuclein", "type": "in vivo, mouse", "conditions": "young TgA53T mice (6–7 months old), vs D5 and DMSO", "description": "The concentration of CNS alpha-synuclein via ELISA was reduced in the brain lysates of old (11–12-month-old) TgA53T mice treated with Pegasus compared to DMSO-treated controls (Figure 5I).\nTo extract the soluble proteins, whole brain tissues, which excluded the olfactory bulb, cerebellum, and spinal cord, were isolated and homogenized in 1 × STEN buffer (50 mM Tris (pH 7.6), 150 mM NaCl, 2 mM EDTA, 0.2% NP-40, 0.2% BSA, 20 mM PMSF, and protease cocktail inhibitor). The proteins were quantified and normalized for WB (and ELISA) on 4–12% Criterion™ XT Bis-Tris Protein Gel (Cat No: 3450125, Bio-rad, Hercules, CA, USA). Beta-actin (β-actin) was probed (1:3000) with monoclonal antibody (Cat No: MAB1501R, Emdmillipore, Danvers, MA, USA). Human alpha-synuclein was probed (1:4000) with monoclonal antibody (Cat No: AHB0261, Thermo Fisher, Waltham, MA, USA). Human oligomeric alpha-synuclein was probed (1:500) with anti-alpha-synuclein oligomer-specific syn33 antibody (Cat No: ABN2265, Sigma-Aldrich, St. Louis, MO, USA). WBs were quantified by densitometry using Quantity One 4.6.3 software (Bio Rad, Hercules, CA, USA) and Image J version 1.54m."}, "astrocyte (GFAP)": {"system": "astrocyte (GFAP)", "assay": "GFAP immunohistochemistry of astrocytes", "type": "in vivo, mouse", "description": "Neuroinflammation is one of the most important pathogeneses in PD in addition to alpha-synuclein aggregation. To examine the effects of Pegasus on glial cell activation, we performed immunohistochemistry of astrocyte and microglia from the brains of treated vs. untreated young (6–7-month-old) and old (12–13-month-old) TgA53T mice.\nAnimals were deeply anesthetized with a mixture of Xylazine and Ketamine (8:80 mg/kg), washed with normal saline for 1 min, and then perfused with 4% paraformaldehyde (PFA) for 15 min. The brains were dissected out and immediately stored in 4% PFA for 24 h at 4 °C, and then transferred to 30% sucrose at 4 °C for 48 h. The brains were cut using a cryostat microtome into 20 µm thick coronal sections and stored at −20 °C. Staining for tyrosine hydroxylase (TH) was probed with anti-tyrosine hydroxylase antibody (Cat No: AB152, Sigma-Aldrich, St. Louis, MO, USA). GFAP (glial fibrillary acidic protein) was stained with anti-GFAP monoclonal antibody (Cat No:MS1376P1, Fisher Scientific, Newington, NH, USA). […] TH^+ cells were counted in a stereology-like manner across multiple visual fields (typically 20 fields) in a single animal, and the same procedure was repeated on several animals to obtain the best approximation of TH staining."}, "[4]": {"conditions": "50 mg/kg Pegasus i.p., Sprague Dawley rats"}},
  "note": "Like-named read-outs stand apart in the source and are kept apart here.",
  "data": [
    {"smiles": "C[C@H]1c2ccc(NC(=O)CCC(=O)NCCc3ccc(O)c(O)c3)c(O)c2C(=O)C2=C(O)[C@]3(O)C(=O)C(C(N)=O)=C(O)CC3[C@@H](O)C21", "note": "(stereo partly shown) [Pegasus]", "values": [
      {"measurement": "Kp", "setting": "[1]; C57BL/6 (mouse), Sprague Dawley (rat), mouse and rat brain, read-out: Share of Pegasus detected in the brain", "value": "< 0.01"},
      {"measurement": "half-life", "setting": "[1]; both sexes, C57BL/6, mouse, brain, 50 mg/kg, 50 mg/kg ip, read-out: Brain T1/2 (elimination) (converted)", "value": 3.77, "unit": "h"},
      {"measurement": "half-life", "setting": "[1]; both sexes, C57BL/6, mouse, brain, 100 mg/kg, 100 mg/kg ip, read-out: Brain T1/2 (elimination) (converted)", "value": 1.82, "unit": "h"},
      {"measurement": "AUC(0-inf)", "setting": "[1]; both sexes, C57BL/6, mouse, brain, 100 mg/kg, across 50 and 100 mg/kg i.p., read-out: AUC0-inf in the brain", "value": "86.6 to 223", "unit": "ng·h/mL"},
      {"measurement": "half-life", "setting": "[1]; both sexes, C57BL/6, mouse, brain, 100 mg/kg, across 50 and 100 mg/kg i.p., read-out: Elimination half time T1/2 in the brain", "value": "1.82 to 3.77", "unit": "h"},
      {"measurement": "Kp", "setting": "[1]; both sexes, C57BL/6, mouse, brain/serum, 50 mg/kg ip, read-out: Ratio of Brain/Serum (%)", "value": 0.007},
      {"measurement": "Kp", "setting": "[1]; both sexes, C57BL/6, mouse, brain/serum, 100 mg/kg ip, read-out: Ratio of Brain/Serum (%)", "value": 0.006},
      {"measurement": "Kp", "setting": "[1]; both sexes, C57BL/6, mouse, brain/serum, across 50 and 100 mg/kg i.p., read-out: Percentage ratio of brain/serum", "value": "0.006 to 0.007"},
      {"measurement": "Tmax", "setting": "[1]; both sexes, C57BL/6, mouse, brain, 50 mg/kg ip, read-out: Brain Tmax", "value": 2, "unit": "h"},
      {"measurement": "Tmax", "setting": "[1]; both sexes, C57BL/6, mouse, brain, 100 mg/kg ip, read-out: Brain Tmax", "value": 1.5, "unit": "h"},
      {"measurement": "AUC(0-inf)", "setting": "[1]; both sexes, C57BL/6, mouse, serum, 50 mg/kg, 50 mg/kg ip, read-out: Serum AUC (0-inf)", "value": 17200, "unit": "ng·h/mL"},
      {"measurement": "half-life", "setting": "[1]; both sexes, C57BL/6, mouse, serum, 50 mg/kg, 50 mg/kg ip, read-out: Serum T1/2 (elimination) (converted)", "value": 4.11, "unit": "h"},
      {"measurement": "AUC(0-inf)", "setting": "[1]; both sexes, C57BL/6, mouse, serum, 100 mg/kg, 100 mg/kg ip, read-out: Serum AUC (0-inf)", "value": 49100, "unit": "ng·h/mL"},
      {"measurement": "half-life", "setting": "[1]; both sexes, C57BL/6, mouse, serum, 100 mg/kg, 100 mg/kg ip, read-out: Serum T1/2 (elimination) (converted)", "value": 4.74, "unit": "h"},
      {"measurement": "AUC(0-inf)", "setting": "[1]; both sexes, C57BL/6, mouse, serum, 100 mg/kg, across 50 and 100 mg/kg i.p., read-out: AUC0-inf in the serum", "value": "17200 to 49100", "unit": "ng·h/mL"},
      {"measurement": "half-life", "setting": "[1]; both sexes, C57BL/6, mouse, serum, 100 mg/kg, across 50 and 100 mg/kg i.p., read-out: Elimination half time T1/2 in the serum", "value": "4.11 to 4.74", "unit": "h"},
      {"measurement": "Cmax", "setting": "[1]; both sexes, C57BL/6, mouse, serum, 50 mg/kg ip, read-out: Serum Cmax", "value": 7.97, "unit": "µM"},
      {"measurement": "Cmax", "setting": "[1]; both sexes, C57BL/6, mouse, serum, 50 mg/kg ip, read-out: Serum Cmax (ng/ml)", "value": 5190, "unit": "ng/mL"},
      {"measurement": "Tmax", "setting": "[1]; both sexes, C57BL/6, mouse, serum, 50 mg/kg ip, read-out: Serum Tmax", "value": 2, "unit": "h"},
      {"measurement": "Cmax", "setting": "[1]; both sexes, C57BL/6, mouse, serum, 100 mg/kg ip, read-out: Serum Cmax", "value": 32.7, "unit": "µM"},
      {"measurement": "Cmax", "setting": "[1]; both sexes, C57BL/6, mouse, serum, 100 mg/kg ip, read-out: Serum Cmax (ng/ml)", "value": 21300, "unit": "ng/mL"},
      {"measurement": "Tmax", "setting": "[1]; both sexes, C57BL/6, mouse, serum, 100 mg/kg ip, read-out: Serum Tmax", "value": 2.5, "unit": "h"},
      {"measurement": "Observed in Rat Brain", "setting": "[2]; [4]", "value": "not detected"},
      {"measurement": "Observed in Rat Plasma", "setting": "[2]; [4]", "value": "very small"},
      {"measurement": "Kp", "setting": "[2]; male, Sprague Dawley, intraperitoneal, 50 mg/kg, relative abundance brain vs plasma, rat", "value": 0},
      {"measurement": "Elevated plus maze total distance traveled", "setting": "TgA53T mice", "value": "significantly decreased"},
      {"measurement": "Elevated plus maze total number of entries to arms", "setting": "TgA53T mice", "value": "significantly decreased"},
      {"measurement": "Percentage of entries to open arms", "setting": "TgA53T mice", "value": "increased"},
      {"measurement": "Percentage of time spent in open arms", "setting": "TgA53T mice", "value": "increased"},
      {"measurement": "Latency to fall (Rotarod)", "setting": "[3]", "value": "significantly increased latency to fall"},
      {"measurement": "Monomeric alpha-synuclein level (WB)", "setting": "human alpha-synuclein", "value": "significant decreases"},
      {"measurement": "Oligomeric alpha-synuclein level (WB)", "setting": "human alpha-synuclein", "value": "significant decreases"},
      {"measurement": "GFAP staining in other brain regions", "setting": "astrocyte (GFAP); including the SN and cortex", "value": "not appreciably different"},
      {"measurement": "GFAP astrocyte reactivity in the hippocampus", "setting": "astrocyte (GFAP); young (6–7-month-old) TgA53T mice, 50 mg/kg i.p., vs DMSO", "value": "significant reduction in astrocyte reactivity"}
    ]}
  ]
}
